The subject of one assay is MCF7 cells. In words: Whole cell cytotoxicity assay: Sulforhodamine B. The class given is cell-based. The following applies: Homo sapiens, 48 hours with drug, Sulforhodamine B staining. The protocol:
Whole Cell Cytotoxicity Assay:Sulforhodamine B
The following procedure can be found on the Developmental Therapeutics Program NCI/NIH web site at http://dtp.nci.nih.gov/brancehes/btb/ivclsp.html.
1. Human tumor cell lines of HT29, A549 and MCF7 are grown in DMEM containing 10% fetal bovine serum and 2 mM L-glutamine. Cells are plated in a 96 well plate at a density of 5000 cells per well in 100 μL of growth medium and incubated at 37° C., 5% CO2, for 24 hours prior to the addition of experimental compounds.
2. Experimental drugs are solubilized in DMSO for a final concentration of 20 mM immediately prior to use. Drugs are further diluted in growth media for a total of nine drug concentrations and a growth control. At the 24-hour time point, one plate of cells is fixed in situ with TCA as a measurement of the cell population at time zero, or the time of drug addition.
3. The plates are further incubated with drug for an additional 48 hours.
4. The cells are fixed in situ by gently aspirating off the culture media and then adding 50 μL of ice cold 10% TCA per well and incubated at 4° C. for 60 minutes. The plates are washed with tap water five times and allowed to air dry for 5 minute.
5. 50 μl of a 0.4% (w/v) Sulforhodamine B solution in 1% (v/v) acetic acid is added per well and incubated for 30 minutes at room temperature.
6. Following staining, plates are washed five times with 1% acetic acid to remove any unbound dye and then allowed to air dry for 5 minutes.
7. Stain is solubilized with 100 μL of 10 mM Tris pH 10.5 per well and placed on an orbital rotator for 5 minutes.
8. Absorbance is read at 570 nm.
In general terms: In SRB staining, fixed cells bind dye roughly in proportion to their protein.

Assay [1] has as its system HDAC (HeLa cell nuclear extract, a mosaic of HDAC enzymes). In words: In vitro fluorescent histone deacetylase (HDAC) activity assay. In kind it is biochemical. The following applies: HeLa cell nuclear extract as HDAC source, 50 μM substrate, 10 min at room temperature (in some assays recombinant HDAC8); read-out: IC50 HDAC Inhibition. Here is the method: Histone deacetylase (HDAC) activity assays were performed using the HDAC fluorescent activity assay/drug discovery kit (Biomol Research Laboratories, Plymouth Meeting, Pa.) essentially according to the manufacturer's instructions. The included HeLa cell nuclear extract, which contains a mosaic of HDAC enzymes and other nuclear factors, was used as the source of HDAC activity. The final substrate concentration in the assay mixture was 50 μM. The reaction was allowed to proceed for 10 min at room temperature before stopping the reaction. Test compounds were prepared as 20 mM stock solutions in DMSO (Molecular Biology grade, Sigma-Aldrich Co., St. Louis, Mo.) and stored at −70° C. Serial dilutions of test compounds were prepared in assay buffer immediately prior to testing. DMSO was determined in a separate trial to have no significant effect on the activity of this assay at concentrations up to 5%; the final DMSO concentration in the wells was no more than 2% and therefore DMSO effects were safely neglected. Assays were performed in white polystyrene 96-well half-area assay plates (Corning, Corning, N.Y.) and measured on a Wallace 1420 fluorescent plate reader (Wallac Oy, Turku, Finland) with an excitation wavelength of 355 nm, an emission wavelength of 460 nm, and a 1 sec signal averaging time.
In some assays recombinant HDAC8 (Biomol) was used as the source of the enzyme activity; here the final substrate concentration was 250 μM, the final concentration of HDAC8 was 0.02 u/μL and the reaction was allowed to proceed at 37° C. for 1 h before stopping. For all curves, IC50 values were calculated with the GraFit curve-fitting program (Erithacus, Horley, Surrey, UK).

Molecules are shown by their SMILES.

The term GI50 denotes the concentration that inhibits growth by half. A high value points to less potent growth inhibition. One may read the IC50 as the concentration that inhibits the measured activity by half.

Compound `O=C(/C=C/c1cnc(N2CCN(S(=O)(=O)c3ccc4ccccc4c3)CC2)s1)NO` [Example 4] returned a GI50 in the assay with MCF7 cells of 0.7 µM. Further, in assay [1], the IC50 was found to be 0.045 µM.
As for `O=C(NO)c1cnc(C2CCN(S(=O)(=O)c3ccc(-c4ccccc4)cc3)CC2)s1` [Example 25, 2-[1-(1,1′-biphenyl-4-ylsulfonyl)piperidin-4-yl]-1,3-thiazole-5-carboxylic acid hydroxyamide], halving of growth with MCF7 cells (GI50) required 100 µM. Further, the IC50 in assay [1] was 13.1 µM.
The compound `Cc1ccc(S(=O)(=O)NC2CCN(c3ncc(C(=O)NO)s3)CC2)cc1` [Example 5d] gave a GI50 with MCF7 cells of 15 µM.
For `O=C(NO)c1cnc(N2CCCN(S(=O)(=O)c3ccc4ccccc4c3)CC2)s1` [Example 2, 1-(2-naphthylsulfonyl)-4-(5-hydroxyaminocarbonylthiazol-2-yl)-1,4-diazepane], in the assay on MCF7 cells, halving of growth (GI50) required 10 µM. In assay [1], the IC50 is 5.9 µM.
For the compound `O=C(NO)c1cnc(N2CCN(Cc3ccccc3)CC2)s1` [Example 17, 2-(4-Benzyl-piperazin-1-yl)-thiazole-5-carboxylic acid hydroxyamide], halving of growth in the assay with MCF7 cells (GI50) required 4 µM.
`O=C(/C=C/c1cnc(N2CCN(S(=O)(=O)c3ccccc3)CC2)s1)NO` [Example 4b]: growth with MCF7 cells was halved (GI50) at 3 µM. In assay [1], the IC50 was found to be 0.44 µM.
For `O=C(/C=C/c1cnc(N2CCN(S(=O)(=O)c3ccc([N+](=O)[O-])cc3)CC2)s1)NO` [Example 4h], in that order: 5 µM and 1.63 µM.
Regarding `O=C(NO)c1cnc(N2CCN(C(=O)CCc3c[nH]c4ccccc34)CC2)s1` [Example 23b, 2-[4-(3-{1H-indol-3-yl}propanoyl)-piperazin-1-yl]-1,3-thiazole-5-carboxylic acid hydroxyamide], the GI50 in the assay with MCF7 cells is 30 µM. Besides, the IC50 in assay [1] was determined as 0.87 µM.
On to `COc1ccc(S(=O)(=O)N2CCN(c3ncc(/C=C/C(=O)NO)s3)CC2)cc1OC` [Example 4c], for which, in the assay with MCF7 cells, the GI50 came out at 4 µM. Further, the IC50 in assay [1] worked out at 0.16 µM.
For `O=C(/C=C/c1cnc(N2CCN(S(=O)(=O)c3ccc(OC(F)(F)F)cc3)CC2)s1)NO` [Example 4e], in that order: 6 µM and 3.24 µM.
The like results for `O=C(/C=C/c1cnc(N2CCN(S(=O)(=O)c3ccc(-c4ccccc4)cc3)CC2)s1)NO` [Example 4j] were, in that order, 1.5 µM and 11.4 µM.
The like results for `O=C(NO)c1cnc(N2CCN(C(=O)c3ccccc3)CC2)s1` [Example 22, 2-(4-benzoyl-piperazin-1-yl)-thiazole-5-carboxylic acid hydroxamide] were, in that order, 40 µM and 3.5 µM.
The compound `O=C(NO)c1cnc(N2CCC(CNS(=O)(=O)c3ccc(-c4ccccc4)cc3)CC2)s1` [Example 5e, 2-(4-{[(1,1′-biphenylsulfonyl)amino]methyl}piperidin-1-yl)-1,3-thiazole-5-carboxylic acid hydroxyamide] yielded a GI50 in the assay on MCF7 cells of 2 µM.
Regarding `CC(=O)N1CCN(c2ncc(C(=O)NO)s2)CC1` [Example 21, 2-(4-acetyl-piperazin-1-yl)-thiazole-5-carboxylic acid hydroxamide], in assay [1], the IC50 is 2.75 µM.
In the case of `O=C(CN1CCN(c2ncc(C(=O)NO)s2)CC1)c1ccccc1` [Example 20B, 2-(4-(2-oxo-2-phenylethyl)-piperazin-1-yl)-1,3-thiazole-5-carboxylic acid hydroxyamide], halving of growth in the assay on MCF7 cells (GI50) required 4 µM.
In the assay with MCF7 cells, `Cc1ccc(S(=O)(=O)NC2C3CN(c4ncc(C(=O)NO)s4)CC32)cc1` (centres unmarked) [Example 5g, 2-(6-{[(4-methylphenyl)sulfonyl]amino}-3-azabicyclo[3.1.0]hex-3-yl)-1,3-thiazole-5-carboxylic acid hydroxyamide] came in with a GI50 of 8 µM. Besides, the IC50 in assay [1] is 0.6 µM.
The like results for `O=C(/C=C/c1cnc(N2CCN(S(=O)(=O)c3ccc(C(F)(F)F)cc3)CC2)s1)NO` [Example 4g] were, in that order, 3 µM and 14.5 µM.
For `CN(C)c1cccc2c(S(=O)(=O)N3CCN(c4ncc(/C=C/C(=O)NO)s4)CC3)cccc12` [Example 4k], the GI50 in the assay on MCF7 cells is 4 µM. In assay [1], the 50% inhibitory concentration (IC50) was 318 µM.
The like results for `O=C(NO)c1cnc(CN2CCN(S(=O)(=O)c3ccc4ccccc4c3)CC2)s1` [Example 24] were, in that order, 10 µM and 6.9 µM.
Regarding `O=C(NO)c1cnc(N2CCN(CCc3ccccc3)CC2)s1` [Example 20, 2-(4-phenylethyl-piperazin-1-yl)-thiazole-5-carboxylic acid hydroxyamide], the IC50 in assay [1] came out at 118 µM.
The compound `O=C(/C=C/c1cnc(N2CCN(S(=O)(=O)c3ccc(F)cc3)CC2)s1)NO` [Example 4m] gave a GI50 in the assay with MCF7 cells of 2.5 µM. For the same compound, the IC50 in assay [1] was found to be 4.7 µM.
For `COc1ccc(S(=O)(=O)N2CCN(c3ncc(/C=C/C(=O)NO)s3)CC2)cc1` [Example 4d], in that order: 1 µM and 0.4 µM.
`Cc1ccc(S(=O)(=O)N2CCN(c3ncc(/C=C/C(=O)NO)s3)CC2)cc1` [Example 4f] gave a GI50 in the assay with MCF7 cells of 2 µM. Besides, the IC50 in assay [1] was determined as 0.55 µM.
The like results for `O=C(NO)c1cnc(N2CCN(C(=O)Cc3ccccc3)CC2)s1` [Example 23, 2-(4-phenylacetyl-piperazin-1-yl)-thiazole-5-carboxylic acid hydroxamide] were, in that order, 20 µM and 31.6 µM.
As for `O=C(NO)c1cnc(N2CCC(NS(=O)(=O)c3ccc(-c4ccccc4)cc3)CC2)s1` [Example 5b], the GI50 with MCF7 cells is 10 µM.
Take `Cc1ccc(S(=O)(=O)N2CCCN(c3ncc(C(=O)NO)s3)C2)cc1` [Example 5h]: in the assay with MCF7 cells, growth was halved (GI50) at 3.5 µM. The IC50 in assay [1] stood at 0.67 µM.
For `O=C(/C=C/c1cnc(N2CCN(S(=O)(=O)c3cccs3)CC2)s1)NO` [Example 4i], in that order: 18 µM and 0.65 µM.
The like results for `O=C(NO)c1cnc(N2CCC(NS(=O)(=O)c3ccc4ccccc4c3)CC2)s1` [Example 5] were, in that order, 6 µM and 0.05 µM.
As for `O=C(NO)c1cnc(NC2CCN(S(=O)(=O)c3ccc4ccccc4c3)CC2)s1` [Example 5f, 2-{[1-(2-naphthylsulfonyl)piperidin-4-yl]amino}-1,3-thiazole-5-carboxylic acid hydroxyamide], the GI50 in the assay with MCF7 cells was 20 µM.
